Ends that are not written are not given here.

The conditions of the data set: pH 5.
“GLFGAIAGFIEGGWTGMIDGWYGS [WT, reference compound]”: the “Kp (lipid/water partition coefficient)” value stood at 10455.

Turning to GLFGAIAGFIEAAWTGMIDGWYGS [G12AG13A], the “Kp (lipid/water partition coefficient)” value was 442.

Consider GLFGAIAGFIEGGATGMIDGWYGS [W14A], for which the “Kp (lipid/water partition coefficient)” value came out at 6265.

On to “GLFAAIAAFIEGGWTAMIDAWYGS [G4AG8AG16AG20A]”, for which the “Kp (lipid/water partition coefficient)” value came to 333.
